Reference: US5124158A, “Transdermal antisecretory agents for gastrointestinal disease” (The Upjohn Company, priority 1990, dated 1992)

Experiments:
[1] = tested on: (H^+ -K^+) ATPase; experiment: Transdermal application to backs of rats, (H+-K+) ATPase activity in fundic gastric mucosal microsomes (K+-dependent ATP-hydrolysis); assay type: in vivo, rat
Procedure: (§1) The animals were allowed to rest for varying amounts of time and then the inhibition of (H^+ -K^+) ATPase, the enzyme responsible for gastric acid secretion, was measured.
(§2) For each of the following examples the drug dilutions were prepared in DMSO to a final concentration of 150 mg/ml. The drug was made fresh prior to each application.
(§3) The inhibition of (H^+ -K^+) ATPase activity was determined as described by Im, W. B.; Blalkeman, D. P., "Inhibitiion of Gastric pH^+ -K^+) ATPase by Unsaturated Long Chain Fatty Acids" Biochem. et Biophy. […] For the rat models, fundic gastric mucosal microsomes were prepared and (H^+ -K^+) ATPase activity in the microsomes was estimated by measuring K^+ -dependent ATP-hydrolysis.
(§4) Male, Upjohn Sprague Dawley rats were anesthetized with sodium pentobarbital and their dorsal hair removed with the depilatory NAIR. Care was taken to prevent abrasions which might result from hair removal. The animals were returned to their cages and allowed to recover for twenty-four hours. The rats were then fasted overnight in metal restraining tubes without water prior to treatment. 2-(4-ethylthio-3-methylpyridin-2-yl methyl)sulfinyl-benzimidazole at 0 or 100 mg/kg was applied to the backs of the rats and spread with an Eppendorf pipette tip. The same volume of DMSO alone was applied after 2 hrs to all animals. The rats were evaluated 5 or 30 hours after the initial dose for determination of (H^+ -K^+) ATPase activity.
as §4, with “Omeprazole” for “2-(4-ethylthio-3-methylpyridin-2-yl methyl)sulfinyl-benzimidazole”
(§5) Additional volumes (100 μl) of DMSO were spread over the treatment area one time (after two hours) or four times (after one, two, three and four hours). The animals were evaluated 5 hours after the initial dose for determination of (H^+ -K^+) ATPase activity.
(§6) Additional volumes (100 μl) of DMSO were spread over the treatment area after 2, 5, and 7 hours. The animals were evaluated 24 hours after the initial dose for determination of (H^+ -K^+) ATPase activity.

[2] = as above; assay type: in vivo, rat; conditions: rat, in vivo, topical or ocular, transdermal, lowest dose 25 mg/kg, read-out: fraction of the lowest dose absorbed
Procedure: as §1, §2, §3, §4
as §4, with “Omeprazole” for “2-(4-ethylthio-3-methylpyridin-2-yl methyl)sulfinyl-benzimidazole”
as §5, §6

[3] = tested on: (H^+ -K^+) ATPase; experiment: Transdermal application to rabbit ears, (H+-K+) ATPase activity in fundic mucosa; assay type: in vivo; conditions: rabbits, transdermal 100 mg/kg divided to both ears, DMSO after 1, 3, 5, 7, 24 and 25 hrs, evaluated 30 hrs after dose
Procedure: as §1, §2
The inhibition of (H^+ -K^+) ATPase activity was determined as described by Im, W. B.; Blalkeman, D. P., "Inhibitiion of Gastric pH^+ -K^+) ATPase by Unsaturated Long Chain Fatty Acids" Biochem. et Biophy. Acta 692:355-60 (1982). For the rat models, fundic gastric mucosal microsomes were prepared and (H^+ -K^+) ATPase activity in the microsomes was estimated by measuring K^+ -dependent ATP-hydrolysis.
For the rabbit models, mucosa from the fundic region was removed by blunt dissection and minced with scissors. 2.5 g of the minced tissue was placed in 25 ml of buffer containing 250 mM sucrose, 2 mM MgCl2, 1 mM EGTA, and 2 mM Hepes/Tris, pH 7.4. The tissues were then prepared as described for the rat gastric mucosa.
Male, New Zealand White rabbits were fasted overnight without water in their cages prior to treatment. The same compound as used in Example 1 was applied at 0 or 100 mg/kg in divided doses (1/2 to each ear) to naive rabbit ears. […] The rabbits were evaluated 30 hrs after the initial dose for determination of (H^+ -K^+) ATPase activity.

[4] = Signs of irritation after transdermal application; assay type: in vivo; conditions: rabbit ears, transdermal 100 mg/kg in DMSO
Procedure: Male, New Zealand White rabbits were fasted overnight without water in their cages prior to treatment. The same compound as used in Example 1 was applied at 0 or 100 mg/kg in divided doses (1/2 to each ear) to naive rabbit ears. The rabbits received an additional application of DMSO to the treatment area after 1, 3, 5, 7, 24 and 25 hrs. The rabbits were evaluated 30 hrs after the initial dose for determination of (H^+ -K^+) ATPase activity.

| Structure (SMILES) | reduction of (H^+ -K^+) ATPase activity from control ([1]; transdermal 100 mg/kg in DMSO, DMSO alone after 2 hrs, evaluated 5 or 30 hours after dose (activity did not change with time)) | additional reduction of (H^+ -K^+) ATPase activity by additional applications of DMSO ([1]; transdermal 100 mg/kg, four wipes of DMSO (1, 2, 3, 4 hours) versus one wipe, 5 hours) [%] | reduction of (H^+ -K^+) ATPase activity ([1]; transdermal 100 mg/kg, four wipes of DMSO (1, 2, 3, 4 hours), 5 hours) [%] | reduction of (H^+ -K^+) ATPase activity from control ([1]; transdermal 100 mg/kg, one DMSO wipe after two hours, evaluated 5 hours after dose (Example 3)) [%] | reduction of (H^+ -K^+) ATPase activity ([1]; transdermal 200 mg/kg, one wipe of DMSO after two hours, 5 hours) [%] | reduction in (H^+ -K^+) ATPase from the control ([1]; transdermal 25, 50 or 100 mg/kg (maximum even at the lower dose), DMSO after 2, 5 and 7 hours, evaluated 24 hours after dose) [%] | Fa [2] [%] | reduction of (H^+ -K^+) ATPase activity from control [3] [%] | signs of irritation [4] | reduction of (H^+ -K^+) ATPase activity as compared to the control ([1]; transdermal 100 mg/kg in DMSO, DMSO alone after 2 hrs, after 5 hours) [%] | reduction of (H^+ -K^+) ATPase activity as compared to the control ([1]; transdermal 100 mg/kg in DMSO, DMSO alone after 2 hrs, after 30 hours) [%] |
| --- | --- | --- | --- | --- | --- | --- | --- | --- | --- | --- | --- |
| CCSc1ccnc(C[S+]([O-])c2nc3ccccc3[nH]2)c1C (centres unmarked) [2-(4-ethylthio-3-methylpyridin-2-ylmethyl)sulfinyl-benzimidazole] | 60-65% | 16 | 81 | 65 | 72 | ~50 | ≥ 4 | 87 | no signs of irritation were observed |  |  |
| COc1ccc2[nH]c([S+]([O-])Cc3ncc(C)c(OC)c3C)nc2c1 (centres unmarked) [omeprazole, reference compound] |  |  |  |  |  |  |  |  |  | 35 | 27 |
